{"source": "patent US11731982B2", "about": "“Biotin derivatives” (LIFE TECHNOLOGIES CORPORATION, priority 2010, dated 2023)", "key": {"[1]": {"target": "T1, M-280 Streptavidin Dynabeads (streptavidin) (Streptomyces avidinii, UniProt P22629)", "T1 construct": "purchased Invitrogen", "T1 sequence (P22629 25-183)": "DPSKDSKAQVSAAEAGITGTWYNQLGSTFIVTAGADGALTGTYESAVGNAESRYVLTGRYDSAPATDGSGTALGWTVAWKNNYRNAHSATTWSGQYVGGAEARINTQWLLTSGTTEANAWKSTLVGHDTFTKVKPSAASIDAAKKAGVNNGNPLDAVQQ", "test": "Fluorescent capture and release assay on M-280 Streptavidin Dynabeads", "assay_type": "binding", "protocol": "In order to evaluate the binding affinity and reversibility of N3′-ethyl biotin with streptavidin, a simple fluorescent binding and release assay was designed. Briefly, N3′-ethyl biotin-AF488 conjugate 117 was incubated with M-280 Streptavidin Dynabeads in pH 7.4 PBS buffer. After 25 min incubation at room temperature, the magnetic beads were separated from the supernatant, which was used to measure the capture efficiency, by measuring the fluorescent intensity of the supernatant solution to determine the amount that was not captured. Then, the N3′-ethyl biotin 117 bound magnetic beads were washed with PBS buffer to remove weak or non-specific binding. The reversibility was tested by incubating the N3′-ethyl biotin 117 bound magnetic beads with 2 mM biotin in PBS buffer at room temperature for 5 min, then the magnetic beads were concentrated by a magnet, and the fluorescent intensity in the solution was measured to determine the amount that was released. As a control, biocytin-AF488 conjugate was also tested in the same assay format.\nThe details of fluorescent capture and release assay were as follows. 100 μL of M280 Streptavidin Dynabeads (10 mg/mL, Invitrogen) was transferred to a 1.5 mL centrifuge tube, and washed with 500 μL PBS three times. […]"}, "streptavidin": {"target": "T2, streptavidin (Streptomyces avidinii, UniProt P22629)", "T2 construct": "purchased ForteBio", "T2 sequence (P22629 25-183)": "as above", "test": "Kinetic measurement of rate constants, label-free ForteBio system, N3′-ethyl biotin immobilized on sensor tips", "assay_type": "binding", "protocol": "The binding constant and on-and-off rate constant of N3′-ethyl biotin with streptavidin were tested using a label-free ForteBio system. The N3′-ethyl biotin 117 was covalently immobilized to amine reactive sensor tips from ForteBio. To generate the association curve, the N3′-ethyl biotin labeled biosensor tips were incubated with streptavidin at 25° C. The dissociation curve was determined by incubating the streptavidin bound sensor tips in PBS buffer described above, as well as in PBS buffer containing 2 mM biotin at 25° C. […] The dissociation constant kD of N3′-ethyl biotin is about 0.8 nM.\nThe details of fluorescent capture and release assay were follows. All interaction analyses were conducted at 25° C. in kinetic buffer (PBS, 0.1% BSA, 0.05% Tween-20, pH 7.2). The amine reactive biosensor tips from ForteBio were prewet for 20 min in water prior to use. The prepared samples and buffers were added to a 96-well microplate at 200 μL per well according the following sample layout, and the entire 96-well plate was agitated at 1000 rpm. Eight biosensor tips were performed the kinetic assay in parallel. Each amine reactive biosensor tip was equilibrated in MES buffer for 5 min, then activated with EDC/NHS for 5 min. The activated biosensor tip was labeled with 2 mM N3′-ethyl biotin 117 for 10 min, then quenched with 1 M ethanolamine for 5 min. The N3′-ethyl biotin 117 immobilized biosensor tip was incubated in kinetic buffer for 5 min to generate baseline, then incubated with 2 μg/mL streptavidin in kinetic buffer or kinetic buffer (control) at 1000 rpm for 10 min to generate association curve, followed by incubation with kinetic buffer or 2 mM biotin in kinetic buffer at 1000 rpm for 10 min to generate dissociation curve. The ForteBio Data Analysis Octet software was used to process the curve by subtracting sample curve from reference curve, and the kinetic data was calculated by fitting curve."}, "[2]": {"test": "Isolation of azido sugar containing glycoproteins from Jurkat cell lysate by click labeling and streptavidin agarose", "settings": "elution 1% SDS in H2O at 95° C. for 5 min", "protocol": "In order to isolate azido sugar containing glycoproteins from cell mixture, the Jurkat cells were cultured in Ac4GlcNAz supplemented media for 24 h. In this culturing, Jurkat cells were cultured in 100 mL RPMI 1640 media supplemented with 10% FBS at two T175 tissue culture flasks. When cell density reached ˜10×10^6 cells/mL, 100 μL of Ac4GlcNAz (100 mM in DMSO) and DMSO (control) were added, respectively. The flasks were incubated at 37° C. humidified incubator with 5% CO2 for 24 h. After incubation, the Jurkat cells were collected by centrifugation at 600×g for 5 min, and washed with PBS five times. The cell pellet was suspended in PBS to adjust the cell density at 50×10^6 cells/mL, and transferred 1 mL each to 1.5 mL tube. The cells were collected again by centrifugation at 600×g for 5 min. Then, 1 mL of 0.5% SDS/PBS was added to each tube, and lysated by sonication. The cell lysate was prepared at ˜3 mg/mL in 0.5% SDS/PBS.\nCell lysate was incubated with N3′-ethyl biotin alkyne 118 or biotin alkyne in the presence of CuSO4, THPTA, and sodium ascorbate at room temperature as described below. N3′-Ethyl biotin alkyne 118 and biotin alkyne (Invitrogen) were used to perform parallel protein enrichment experiments. Biotin alkyne has the structure: […]"}}, "data": [{"compound": "N[C@@H](CCCCNC(=O)CCCC[C@@H]1SC[C@@H]2NC(=O)N[C@@H]21)C(=O)O", "note": "[Biocytin]", "values": [{"measurement": "Capture efficiency", "setting": "[1]; 0.2 μM in PBS pH 7.4, 25 min room temperature", "result": "96 ± 2", "unit": "%"}, {"measurement": "Release efficiency", "setting": "[1]; 2 mM biotin in PBS, room temperature 5 min", "result": "<5", "unit": "%"}]}, {"compound": "CCN1C(=O)N[C@H]2CS[C@@H](CCCCC(=O)O)[C@H]21", "note": "[N3′-ethyl biotin]", "values": [{"measurement": "off-rate koff in the presence of 1 mM bis-biotin competing reagent", "setting": "streptavidin; 1 mM bis-biotin", "result": "~5.8×10^−2 S^−1"}, {"measurement": "on-rate kon with streptavidin", "setting": "streptavidin; 25° C.", "result": "~1.5×10^5 M^−1S^−1"}, {"measurement": "off-rate koff in the presence of 2 mM biotin", "setting": "streptavidin; 25° C., 2 mM biotin", "result": "~5.8×10^−2 S^−1"}, {"measurement": "Kd", "setting": "streptavidin; 25° C., read-out: dissociation constant kD", "result": "~0.8", "unit": "nM"}]}, {"compound": "C#CCNC(=O)CCOCCOCCOCCOCCNC(=O)CCCC[C@@H]1SC[C@@H]2NC(=O)N[C@@H]21", "note": "[biotin alkyne]", "values": [{"measurement": "quality of isolated proteins", "setting": "[2]", "result": "contaminated with streptavidin"}]}, {"compound": "Biotin", "values": [{"measurement": "reversibility of streptavidin binding", "setting": "streptavidin; in the presence of 1 mM bis-biotin competing reagent", "result": "almost irreversible"}]}]}
